Consider six compounds from patent US20170008888A1 (KYORIN PHARMACEUTICAL CO., LTD., priority 2014, published 2017).

Like-named read-outs stand apart in the source and are kept apart here.

For this assay, the system named is murine Th17 cells. The assay is described as follows: Cytokine response by in vitro-polarized murine Th17 cells stimulated with PMA/ionomycin. In kind it is cell-based. As to conditions: Mus musculus, PMA/ionomycin 20 h. As to the method: Purification of murine CD4+ T cells: To isolate mouse splenocytes, freshly isolated mouse spleens were minced in culture media (RPMI 1640 (Lonza, Allendale, N.J.) containing 10% (v/v) charcoal-dextran filtered, heat inactivated FBS (Omega Scientific, Tarzana, Calif.), 0.05 mM 2-Mercaptoethanol (Sigma-Aldrich, St. Louis, Mo.), and 1×Pen/Strep Amphotericin B (Lonza)), using a sterile razor blade then pushed through 70 and 40 μm cell strainers. Cells were resuspended in ACK Lysing Buffer (Lonza) for 3 minutes at room temperature to lyse the red blood cells. CD4+ T cells were isolated from the mouse splenocytes using the EasySep negative selection mouse CD4+ T cell isolation kit (Stemcell, Vancouver, Canada) according to manufacturer's instructions briefly as follows: Unwanted cells were specifically labeled by incubation with a cocktail of biotinylated antibodies directed against cell surface antigens on mouse cells of hematopoietic origin (CD8a, CD11b, CD11c, CD19, CD45R/B220, CD49b, TCRγ/δ, and TER119). Labeled cells were then magnetically removed using streptavidin-bound magnetic beads, leaving the desired CD4+ T cells.
In vitro mouse Th17 differentiation: Mouse CD4+ T cells isolated as above were polarized into Th17 cells as follows: Tissue culture-treated 100 mm plates (Corning, Corning, N.Y.) were coated with 2 μg/ml purified NA/LE hamster anti-mouse CD3e clone 145-2C11 antibody (BD Biosciences, San Jose, Calif.) overnight at 4° C. Each coated plate was seeded with ˜2-3 e6 mouse CD4+ T cells in polarization media consisting of culture media (RPMI 1640/FBS/2-Mercaptoethanol/Pen/Strep Amphotericin B) supplemented with: recombinant mouse IL-6 (50 ng/ml), […] (50 ng/ml), IL-23 (50 ng/ml)(R&D Systems, Minneapolis, Minn.), recombinant human TGF1β (5 ng/ml) (Cell Signaling Technology, Danvers, Mass.), anti-CD28 clone 37.51 (10 μg/ml)(BD Biosciences, San Jose, Calif.), anti-IL-2 clone JES6-1A12 (1 μg/ml), anti-IL-4 clone 11B11 (10 μg/ml), and anti-IFNγ clone XMG1.2 (10 μg/ml). All recombinant mouse cytokines and anti-mouse neutralizing antibodies were purchased from eBioscience (San Diego, Calif.) unless otherwise specified. Cells were incubated in the above Polarization media for 3 d at 37° C. in a humidified atmosphere at 5% CO2. After 3 d, cells were re-polarized as above, except for the following cytokine and neutralizing antibody concentration changes: recombinant mouse IL-6 (40 ng/ml), recombinant human TGFβ (1 ng/ml), anti-CD28 clone 37.51 (5 μg/ml), anti-IL-2 clone JES6-1A12 (0.5 μg/ml), anti-IL-4 clone 11B11 (5 μg/ml), and anti-IFNγ clone XMG1.2 (5 μg/ml). Cells were maintained under the above conditions for an additional 3 d at 37° C. in humidified atmosphere at 5% CO2 for a total of 6 days of polarization.
Inhibition of cytokine response by in vitro-polarized murine Th17 cells stimulated with PMA/ionomycin: Murine Th17 cells, polarized as described above, were seeded at 2e6 cells/ml in culture media. Cells were pre-treated with test compounds (10 μM down by ⅕ in a 4-point serial dilution series) for 1 h at 37° C. in a humidified atmosphere at 5% CO2. Cells were then stimulated with 50 ng/ml phorbol 12-myristate 13-acetate (PMA)(Sigma-Aldrich, St. Louis, Mo.)+1 μg/ml ionomycin (Life Technologies, Grand Island, N.Y.) for 20 h at 37° C. in a humidified atmosphere at 5% CO2. Supernatant was collected and analyzed using Bio-Plex Pro Mouse Cytokine Th17 Panel A 6-Plex and the Bio-Plex Pro Mouse Cytokine Th17 Panel B 8-Plex (Bio-Rad Laboratories, Hercules, Calif.) as per manufacturer's protocols. Magnetic beads were read on the Bio-Plex MAGPIX multiplex reader instrument using the accompanying xPONENT 4.2 acquisition software (Bio-Rad Laboratories, Hercules, Calif.). Data were analyzed via the Bio-Plex Manager software v6.1 (Bio-Rad Laboratories).

The mark [1] stands for this setting: read-out: EC50 (nM) of cytokine reduction, IFNγ.
[2] abbreviates: read-out: EC50 (nM) of cytokine reduction, IL-6.
[3] abbreviates: read-out: EC50 (nM) of cytokine reduction, IL-10.
[4] abbreviates: read-out: EC50 (nM) of cytokine reduction, IL-17A.
[5] abbreviates: read-out: EC50 (nM) of cytokine reduction, IL-21.
Where [6] appears, read: read-out: EC50 (nM) of cytokine reduction, IL-22.
[7] abbreviates: read-out: EC50 (nM) of cytokine reduction, IL-23p19.

With `CCOc1cc(C(=O)N2CCC(N3CCCC3)CC2)ccc1Nc1cc2c(cn1)N(C)C(=O)c1ccccc1N2C` [Compound 46, 3-(2-Ethoxy-4-(4-(pyrrolidin-1-yl)piperidine-1-carbonyl)phenylamino)-5,11-dimethyl-5H-benzo[e]pyrido[3,4-b][1,4]diazepin-10(11H)-one], the EC50 reads like this: under setting [1], 4270 nM; under setting [2], 1740 nM; under setting [3], 577 nM; under setting [4], > 10000 nM; under setting [5], 4850 nM; under setting [6], 2630 nM. In addition, the EC50 under setting [7] came to 480 nM.

In the case of `CCOc1cc(C(=O)NCC2CC2)ccc1Nc1cc2c(cn1)N(C)C(=O)c1ccccc1N2C` [Compound 57], the EC50 under setting [1] is 6930 nM; the EC50 under setting [2] is 2920 nM; the EC50 under setting [3] amounted to 2150 nM; the EC50 under setting [4] is > 10000 nM; the EC50 under setting [5] stood at 3990 nM; the EC50 under setting [6] worked out at 2120 nM. Also, the EC50 under setting [7] turned out to be 840 nM.

In the case of `CCOc1cc(C(=O)N2CCC(N3CCN(C)CC3)CC2)ccc1Nc1cc2c(cn1)N(C)C(=O)c1ccccc1N2C` [Compound 61], the EC50 was > 10000 nM under setting [1]; 1600 nM under setting [2]; 1090 nM under setting [3]; > 10000 nM under setting [4]; 4240 nM under setting [5]; 2980 nM under setting [6]. Besides, the EC50 under setting [7] turned out to be 800 nM.

As for `CCOc1cc(C(=O)N2CCNCC2)ccc1Nc1cc2c(cn1)N(C)C(=O)c1ccccc1N2C` [Compound 62], the EC50 runs as follows: under setting [1], 8540 nM; under setting [2], 2480 nM; under setting [3], 1820 nM; under setting [4], > 10000 nM; under setting [5], 4980 nM; under setting [6], 5010 nM. In addition, the EC50 under setting [7] stood at 1340 nM.

As for `CCOc1cc(C(=O)N2CCC(N3CCN(C)CC3)CC2)ccc1Nc1cc2c(cn1)N(C)C(=O)c1occc1N2C` [Compound 65], the EC50 is > 10000 nM under setting [1]; 2380 nM under setting [2]; 979 nM under setting [3]; > 10000 nM under setting [4]; 8280 nM under setting [5]; 5080 nM under setting [6]. The EC50 under setting [7] stood at 940 nM.

As to `CCOc1cc(C(=O)N2CC[C@@H](N(C)C)C2)ccc1Nc1cc2c(cn1)N(C)C(=O)c1ccccc1N2C` [Compound 115], the EC50 is, setting by setting: under setting [1], 1770 nM; under setting [2], 1170 nM; under setting [3], 373 nM; under setting [4], 4980 nM; under setting [5], 2110 nM; under setting [6], 880 nM. Moreover, the EC50 under setting [7] was found to be 360 nM.

A word on the EC50: it is the concentration needed to bring the measured effect to its halfway point.
